From patent US20220184071A1, “GEPOTIDACIN FOR USE IN THE TREATMENT OF BACTERIAL URINARY TRACT INFECTIONS” (GlaxoSmithKline Intellectual Property Development Limited, priority 2019, published 2022)
Values after ≈ are worked out from the molar mass of the structure shown. Read-outs that look alike come from different tables or passages of the source.

What was measured:
[1] = system: Proteus hauseri and Proteus peneri; assay: MIC by CLSI agar dilution, Example 1 Method 2; assay type: cell-based; settings: at least one strain of every organism listed
Experimental: Antimicrobial activity was determined in a second study by […] using the CLSI recommended procedure in serial two-fold dilutions and the minimum inhibitory concentration (MIC) was determined as the lowest concentration of the compound that inhibited visible growth. Amikacin, ceftazidime, colistin, fosfomycin, levofloxacin, meropenem, nitrofurantoin and trimethoprim-sulfamethoxazole were included as comparators. MICs for and comparators were determined by agar dilution according CLSI methods. In addition, gepotidacin and all of the aforementioned comparators identified in this method were evaluated against gram-negative aerobic organisms selected from Proteus hauseri and Proteus […]. Gepotidacin was tested in at least one exemplified salt.

[2] = system: Staphylococcus saprophyticus; assay: MIC by CLSI broth microdilution in CAMHB and urine, Example 1 Method 3; assay type: cell-based; settings: for Mean MIC: n = 6; for MIC: Staphylococcus saprophyticus
Experimental: Antimicrobial activity was determined by broth microdilution using the CLSI recommended procedure.
(§1) The compounds were tested in serial two-fold dilutions and the minimum inhibitory concentration (MIC) was determined as the lowest concentration of the compound that inhibited visible growth.
In particular, gepotidacin was tested against 6 strains of Staphylococcus saprophyticus from the collection of isolates at Laboratory Specialists, Inc., Westlake, Ohio.
Levofloxacin was included as the comparator in the study to determine the effect of urine on the in vitro activity of gepotidacin against Staphylococcus saprophyticus. MICs were determined by broth microdilution according CLSI methods.
(§2) The data shown in the table below are results from an in vitro study conducted with the same S. saprophyticus isolates described above, to determine the effect of urine on the in vitro activity of gepotidacin and levofloxacin against S. saprophyticus. Study strains were tested for MICs (minimum inhibitory concentrations) according to reference CLSI broth microdilution method using cation-adjusted Mueller Hinton Broth (CAMHB) and with the addition of 25%, 50% and 100% urine (not pH adjusted, pH 6.42) and 100% urine (pH adjusted, 7.31 and 8.07).

[3] = Saliva exposure, healthy volunteers; assay type: in vivo, human; settings: 1500 mg oral single dose
Experimental: Antibiotic target site exposures play a key role as suboptimal levels may lead to therapeutic failure and resistance. Across multiple clinical studies, exposures to gepotidacin were assessed in plasma and other matrices, such as urine, saliva, epithelial lining fluid (ELF) and Alveolar Macrophages (AM).
Bronchoalveolar lavage samples were collected to determine gepotidacin exposures in ELF and AM following a single 1000 mg IV infusion over 2 hours to healthy subjects. Saliva exposure was assessed in healthy volunteers following 1500 mg oral single dose. Gepotidacin exposures in urine was assessed in women with acute uUTI following 1500 mg BID oral doses for 5 days.

[4] = system: coagulase-negative staphylococci; assay: MIC by CLSI broth microdilution, Example 5 Method 1; assay type: cell-based
Experimental: (§3) Gepotidacin was tested against 101 coagulase-negative staphylococci and 105 viridans streptococci in serial two-fold dilutions and the minimum inhibitory concentration (MIC) was determined as the lowest concentration of the compound that inhibited visible growth. All of the clinical isolates were collected in 2009-2012 from patient infections from North America, Europe, Latin America and Asia-Pacific medical centers and were mainly obtained from patients with documented nosocomial and community-acquired respiratory tract infections, bloodstream infections and skin and skin structure infections. Ceftriaxone, meropenem, penicillin, levofloxacin, moxifloxacin and linezolid were included as comparators when testing the viridans streptococci isolates. Oxacillin, levofloxacin, moxifloxacin and linezolid, were included as comparators when testing the coagulase-negative staphylococci isolates. MICs were determined by broth microdilution according to CLSI methods.

[5] = system: viridans streptococci; assay: as above; assay type: cell-based; settings: 105 isolates
Experimental: as §3

[6] = system: Staphylococcus epidermidis; assay: MIC by CLSI broth microdilution in CAMHB and urine, Example 5 Method 2; assay type: cell-based; settings: for Mean MIC: n = 4; for MIC: Staphylococcus epidermidis
Experimental: as §1
In particular, gepotidacin was tested against 4 strains of Staphylococcus epidermidis from the collection of isolates at Laboratory Specialists, Inc., Westlake, Ohio.
Levofloxacin was included as the comparator in the study to determine the effect of urine on the in vitro activity of gepotidacin against Staphylococcus epidermidis. MICs were determined by broth microdilution according CLSI methods.
as §2, with “epidermidis” for “saprophyticus”, “epidermidis.” for “saprophyticus.”, “MICs” for “MICs (minimum inhibitory concentrations)”

## O=c1ccc2ncc(=O)n3c2n1C[C@H]3CN1CCC(NCc2cc3c(cn2)OCCC3)CC1 [gepotidacin, (2R)-2-({4-[(3,4-dihydro-2H-pyrano[2,3-c]pyridin-6-ylmethyl)amino]-1-piperidinyl}methyl)-1,2-dihydro-3H,8H-2a,5,8a-triazaacenaphthylene-3,8-dione]
[1]
  MIC: ≤ 8 µg/mL
[2]; 3 isolates of methicillin-resistant S. saprophyticus
  MIC range: 0.06 to 0.5 µg/mL
[2]; 3 isolates of methicillin-susceptible S. saprophyticus
  MIC range: 0.03 to 0.5 µg/mL
[2]; 25% Urine (pH 7.09) vs CAMHB
  Mean Dilution Difference: 0.00
  Mean difference: 0.00
  N(%) ± 1 dilution: 6 (100%)
  N(%) ± 2 dilution: 6 (100%)
[2]; 25% Urine (pH 7.09)
  Mean MIC: 0.11 µg/mL
[2]; 50% Urine (6.99) vs CAMHB
  Mean Dilution Difference: 0.00
  Mean difference: 0.00
  N(%) ± 1 dilution: 6 (100%)
  N(%) ± 2 dilution: 6 (100%)
[2]; 50% Urine (6.99)
  Mean MIC: 0.11 µg/mL
[2]; 100% Urine (pH 6.42) vs CAMHB
  Mean Dilution Difference: 1.18
  Mean difference: 0.14
  N(%) ± 1 dilution: 4 (66.7%)
  N(%) ± 2 dilution: 6 (100%)
[2]; 100% Urine (pH 6.42)
  Mean MIC: 0.24 µg/mL
[2]; 100% Urine (pH 7.31) vs CAMHB
  Mean Dilution Difference: 1.54
  Mean difference: 0.21
  N(%) ± 1 dilution: 3 (50%)
  N(%) ± 2 dilution: 4 (66.7%)
[2]; 100% Urine (pH 7.31)
  Mean MIC: 0.31 µg/mL
[2]; 100% Urine (pH 8.07) vs CAMHB
  Mean Dilution Difference: 1.36
  Mean difference: 0.17
  N(%) ± 1 dilution: 3 (50%)
  N(%) ± 2 dilution: 5 (83.3%)
[2]; 100% Urine (pH 8.07)
  Mean MIC: 0.28 µg/mL
[2]; CAMHB (ref. method, pH 7.2)
  Mean MIC: 0.11 µg/mL
[2]; read-out: MICs, heading: MICs, methicillin-susceptible and methicillin-resistant isolates tested (conclusion)
  MIC: ≤ 0.5 µg/mL
[2]; at least one strain of methicillin-susceptible or methicillin-resistant S. saprophyticus, read-out: MIC
  MIC: ≤ 0.5 µg/mL
[2]; each of the methicillin-resistant S. saprophyticus
  MIC fold lower than levofloxacin: 4 fold
[2]; gepotidacin in 100% urine (conclusion)
  mean dilution differences (range): 1.18-1.54
[2]; methicillin-susceptible S. saprophyticus
  MIC fold lower than levofloxacin: 8-32 fold
[3]
  ratio of saliva AUC to unbound plasma AUC: close to unity
[4]; 101 isolates
  MIC90: 0.5 µg/mL (≈ 1.11 µM)
[4]; coagulase-negative staphylococci and viridans streptococci, except meropenem and moxifloxacin against viridans group streptococci
  MIC90 fold lower than the comparators tested: 2 to 64 fold
[5]
  MIC90: 0.5 µg/mL (≈ 1.11 µM)
[6]; 2 isolates of methicillin-resistant S. epidermidis
  MIC range: 0.25 to 0.5 µg/mL
[6]; 25% Urine (pH 7.09) vs CAMHB
  Mean Dilution Difference: −0.75
  Mean difference: −0.17
  N(%) ± 1 dilution: 4 (100%)
  N(%) ± 2 dilution: 4 (100%)
[6]; 25% Urine (pH 7.09)
  Mean MIC: 0.25 µg/mL
[6]; 50% Urine (6.99) vs CAMHB
  Mean Dilution Difference: −1.01
  Mean difference: −0.21
  N(%) ± 1 dilution: 4 (100%)
  N(%) ± 2 dilution: 4 (100%)
[6]; 50% Urine (6.99)
  Mean MIC: 0.21 µg/mL
[6]; 100% Urine (pH 6.42) vs CAMHB
  Mean Dilution Difference: −0.26
  Mean difference: −0.07
  N(%) ± 1 dilution: 4 (100%)
  N(%) ± 2 dilution: 4 (100%)
[6]; 100% Urine (pH 6.42)
  Mean MIC: 0.35 µg/mL
[6]; 100% Urine (pH 7.31) vs CAMHB
  Mean Dilution Difference: 0.25
  Mean difference: 0.08
  N(%) ± 1 dilution: 4 (100%)
  N(%) ± 2 dilution: 4 (100%)
[6]; 100% Urine (pH 7.31)
  Mean MIC: 0.5 µg/mL
[6]; 100% Urine (pH 8.07) vs CAMHB
  Mean Dilution Difference: 0.00
  Mean difference: 0.00
  N(%) ± 1 dilution: 4 (100%)
  N(%) ± 2 dilution: 4 (100%)
[6]; 100% Urine (pH 8.07)
  Mean MIC: 0.42 µg/mL
[6]; 100% urine (conclusion)
  mean dilution differences (range): 0 to −0.26
[6]; CAMHB (ref. method, pH 7.2)
  Mean MIC: 0.42 µg/mL
[6]; 2 isolates of methicillin-susceptible S. epidermidis, read-out: MIC
  MIC: 0.5 µg/mL (≈ 1.11 µM)
[6]; at least one strain of methicillin-susceptible or methicillin-resistant S. epidermidis, read-out: MIC
  MIC: ≤ 0.5 µg/mL
[6]; read-out: MICs, methicillin-susceptible and methicillin-resistant isolates tested (conclusion), heading: MICs
  MIC: < 0.5 µg/mL
[6]; addition of urine vs CAMHB
  mean dilution differences (range): 0 to −1.01
[6]; each of the methicillin-resistant S. epidermidis
  MIC fold greater than the levofloxacin MIC: 4 fold
[6]; methicillin-susceptible S. epidermidis
  MIC fold greater than the levofloxacin MIC: 2 fold
